Measurements published in patent US5817617A, “Selectin and pertussis toxin derived peptides and uses thereof” (The Rockefeller University, priority 1994, dated 1998).
Where a SMILES comes first, the peptide text is derived from it.

Assays:
Type in all cases: cell-based
CR3 = assay: Assay 3: upregulation of integrins (CR3) on the surface of a neutrophil, detected with EC3bi (FIG. 5); settings: for # of cells ASSAY 3: peptide at 1 mg/ml, upregulation of integrins on neutrophil; for ability to upregulate integrins on leukocytes, assay 3 (in words): peptides of Table 2
Description: EC3bi is an erythrocyte coated with the complement component C3bi and is used to detect the presence of CR3 on the surface of a leukocyte according to the procedure of Wright et al (supra).
The test was conducted with separate proteins in tissue culture as in the experiment described in connection with the previous figure.
Assay 3 measures upregulation of integrins on the surface of a neutorphil as described in FIG. 5. Values ±50% are significant.

ELAM = assay: Assay 1: inhibition of adherence of neutrophils to ELAM-coated surfaces (FIG. 4); settings: for % of inhibition ASSAY 1: peptide at 1 mg/ml, neutrophils on ELAM-coated surfaces
Description: In the study, the proteins PT, B-oligomer, S2, S3, S2/S3 and S3/S2 were taken up in an isotonic buffered tissue culture medium to a concentration of 50 ug/ml and the ability of each of them to inhibit adhesion of neutrophils to ELAM or GMP140 was determined as described by Wright et al J. Exp. Med. 158:2016 (1983). The buffer was employed as the control and each protein studied was compared to the control for the ability to decrease adhesion capacity.
Assay 1 is inhibition of adherence of enutrophils to ELAM-coated surfaces as described in connection with FIG. 4. Values ±20% inhibition are significant.

endothelial cells = assay: Assay 2: inhibition of adherence of a neutrophil to a monolayer of endothelial cells; settings: peptide at 1 mg/ml
Description: Assay 2 is inhibition of adherence of a neutrophil to a monolayer of endothelial cells as described by Lo et al J. Exp. Med. 173:1493-1500 (1991). Values ±50% inhibition are significant.

Row | Compound | # of cells ASSAY 3 (CR3) | ability to upregulate integrins on leukocytes, assay 3 (in words) (CR3) | % of inhibition ASSAY 1 (ELAM) | % of inhibition ASSAY 2 (endothelial cells; neutrophil on monolayer of endothelial cells) [%] | activity in Assays 1 or 2 (in words) (endothelial cells; adherence of leukocytes to selectins or endothelial cells bearing selectins) | inhibition of neutrophil/leukocyte adherence to ELAM (ELAM; protein at 50 ug/ml, compared to buffer control) [%]
1 | CC[C@H](C)[C@H](NC(=O)[C@H](C)NC(=O)[C@@H](N)C(C)C)C(=O)N[C@@H](CCC(N)=O)C(=O)N[C@@H](CC(N)=O)C(=O)N[C@@H](CCCCN)C(=O)N[C@@H](CCC(=O)O)C(=O)N[C@@H](CCC(=O)O)C(=O)N[C@H](C(=O)N[C@@H](CCC(=O)O)C(=O)N[C@@H](Cc1ccc(O)cc1)C(=O)N[C@@H](CC(C)C)C(=O)N[C@@H](CC(N)=O)C(=O)N[C@@H](CO)C(=O)N[C@H](C(=O)N[C@@H](CC(C)C)C(=O)N[C@@H](CO)C(=O)N[C@@H](Cc1ccc(O)cc1)C(=O)N[C@@H](CO)C(=O)O)[C@@H](C)CC)[C@@H](C)CC [SEQ ID NO:15, VAIQNKEEIEYLNSILSYS] (H-VAIQNKEEIEYLNSILSYS-OH) | 71 # of cells | ability to upregulate integrins on leukocytes | 22-52% | – | – | –
2 | CC[C@H](C)[C@H](NC(=O)[C@H](C)NC(=O)[C@@H](NC(=O)[C@H](CC(C)C)NC(=O)[C@H](CC(=O)O)NC(=O)[C@@H](N)[C@@H](C)O)C(C)C)C(=O)N[C@@H](CCC(N)=O)C(=O)N[C@@H](CC(N)=O)C(=O)N[C@@H](CCCCN)C(=O)N[C@@H](C)C(=O)N[C@@H](CCC(=O)O)C(=O)N[C@H](C(=O)N[C@@H](CCC(=O)O)C(=O)N[C@@H](Cc1ccc(O)cc1)C(=O)N[C@@H](CC(C)C)C(=O)O)[C@@H](C)CC [SEQ ID NO:19, TDLVAIQNKAEIEYL] (H-TDLVAIQNKAEIEYL-OH) | 104 # of cells | ability to upregulate integrins on leukocytes | – | 80 | – | –
3 | CC(C)C[C@H](NC(=O)[C@H](Cc1ccc(O)cc1)NC(=O)[C@@H](NC(=O)[C@H](CCC(N)=O)NC(=O)[C@H](CC(C)C)NC(=O)[C@H](CCC(=O)O)NC(=O)[C@H](C)NC(=O)[C@H](CC(N)=O)NC(=O)CNC(=O)[C@H](CC(C)C)NC(=O)[C@H](CCC(=O)O)NC(=O)[C@H](C)NC(=O)[C@@H](NC(=O)[C@@H](NC(=O)[C@H](CC(C)C)NC(=O)[C@H](C)N)[C@@H](C)O)C(C)C)[C@@H](C)O)C(=O)O [SEQ ID NO:26, ALTVAELGNAELQTYL] (H-ALTVAELGNAELQTYL-OH) | – | ability to upregulate integrins on leukocytes | – | – | active | –
4 | CC[C@H](C)[C@H](NC(=O)[C@H](CO)NC(=O)[C@H](CC(N)=O)NC(=O)[C@H](CC(C)C)NC(=O)[C@H](Cc1ccc(O)cc1)NC(=O)[C@H](CCC(=O)O)NC(=O)[C@@H](NC(=O)[C@H](CCC(=O)O)NC(=O)[C@H](CCC(=O)O)NC(=O)[C@@H](N)CCCCN)[C@@H](C)CC)C(=O)N[C@@H](CC(C)C)C(=O)N[C@@H](CO)C(=O)N[C@@H](Cc1ccc(O)cc1)C(=O)N[C@@H](CO)C(=O)O [SEQ ID NO:29, KEEIEYLNSILSYS] (H-KEEIEYLNSILSYS-OH) | 73 # of cells | – | 0-2% | – | – | –
5 | CC[C@H](C)[C@H](NC(=O)[C@H](C)NC(=O)[C@@H](N)C(C)C)C(=O)N[C@@H](CCC(N)=O)C(=O)N[C@@H](CC(N)=O)C(=O)N[C@@H](CCCCN)C(=O)N[C@@H](C)C(=O)N[C@@H](CCC(=O)O)C(=O)N[C@H](C(=O)N[C@@H](CCC(=O)O)C(=O)N[C@@H](Cc1ccc(O)cc1)C(=O)N[C@@H](CC(C)C)C(=O)N[C@@H](CCC(=O)O)C(=O)N[C@@H](CCCCN)C(=O)N[C@H](C(=O)N[C@@H](CC(C)C)C(=O)N1CCC[C@H]1C(=O)N[C@@H](Cc1ccccc1)C(=O)N[C@@H](CO)C(=O)O)[C@@H](C)O)[C@@H](C)CC [SEQ ID NO:31, VAIQNKAEIEYLEKTLPFS] (H-VAIQNKAEIEYLEKTLPFS-OH) | 163 # of cells | ability to upregulate integrins on leukocytes | 23-31% | – | – | –
6 | CC[C@H](C)[C@H](NC(=O)[C@H](CCC(N)=O)NC(=O)[C@H](CCCNC(=N)N)NC(=O)[C@H](CC(C)C)NC(=O)[C@H](Cc1ccc(O)cc1)NC(=O)[C@@H](NC(=O)[C@H](CCC(N)=O)NC(=O)[C@H](CC(C)C)NC(=O)[C@H](CCC(=O)O)NC(=O)[C@H](C)N)[C@@H](C)O)C(=O)N[C@H](C(=O)N1CCC[C@H]1C(=O)NCC(=O)N[C@@H](Cc1c[nH]c2ccccc12)C(=O)N[C@@H](CO)C(=O)O)[C@@H](C)O [SEQ ID NO:32, AELQTYLRQITPGWS] (H-AELQTYLRQITPGWS-OH) | 122 # of cells | – | 0-18% | – | – | –
7 | CC[C@H](C)[C@H](NC(=O)[C@H](C)NC(=O)[C@@H](N)C(C)C)C(=O)N[C@@H](CCC(N)=O)C(=O)N[C@@H](CC(N)=O)C(=O)N[C@@H](CCCCN)C(=O)N[C@@H](CC(N)=O)C(=O)N[C@@H](CCC(=O)O)C(=O)N[C@H](C(=O)N[C@@H](CC(=O)O)C(=O)N[C@@H](Cc1ccc(O)cc1)C(=O)N[C@@H](CC(C)C)C(=O)N[C@@H](CC(N)=O)C(=O)N[C@@H](CCCCN)C(=O)N[C@H](C(=O)N[C@@H](CC(C)C)C(=O)N1CCC[C@H]1C(=O)N[C@@H](Cc1ccc(O)cc1)C(=O)N[C@@H](Cc1ccc(O)cc1)C(=O)N[C@@H](CO)C(=O)O)C(C)C)[C@@H](C)CC [SEQ ID NO:33] (H-VAIQNKNEIDYLNKVLPYYS-OH) | 113 # of cells | ability to upregulate integrins on leukocytes | 3-14% | – | – | –
8 | CC(C)C[C@H](NC(=O)[C@H](CC(=O)O)NC(=O)CNC(=O)[C@H](CO)NC(=O)CNC(=O)[C@H](CCCNC(=N)N)NC(=O)[C@H](CC(C)C)NC(=O)[C@H](CCC(=O)O)NC(=O)[C@H](C)NC(=O)[C@@H](N)C(C)C)C(=O)N[C@@H](CCC(N)=O)C(=O)N[C@@H](CCC(=O)O)C(=O)N[C@@H](Cc1ccc(O)cc1)C(=O)N[C@@H](CC(C)C)C(=O)N[C@@H](CCCNC(=N)N)C(=O)N[C@@H](Cc1c[nH]cn1)C(=O)N[C@H](C(=O)N[C@H](C(=O)N[C@@H](CCCNC(=N)N)C(=O)NCC(=O)N[C@@H](Cc1c[nH]c2ccccc12)C(=O)N[C@@H](CO)C(=O)O)[C@@H](C)O)C(C)C [SEQ ID NO:34] | 18 # of cells | does not share this property | 22-33% | – | – | –
9 | CC(C)C[C@H](NC(=O)[C@H](CC(=O)O)NC(=O)CN)C(=O)N[C@@H](CCC(N)=O)C(=O)N[C@@H](CCC(=O)O)C(=O)N[C@@H](Cc1ccc(O)cc1)C(=O)N[C@@H](CC(C)C)C(=O)N[C@@H](CCCNC(=N)N)C(=O)N[C@@H](Cc1c[nH]cn1)C(=O)N[C@H](C(=O)N[C@H](C(=O)N[C@@H](CCCNC(=N)N)C(=O)NCC(=O)N[C@@H](Cc1c[nH]c2ccccc12)C(=O)N[C@@H](CO)C(=O)O)[C@@H](C)O)C(C)C [SEQ ID NO:35, GDLQEYLRHVTRGWS] | 104 # of cells | – | 0-14% | – | – | –
10 | S3 with deletion 1: S3 protein from which the VA or YL region of the motif was deleted (TRALTRGNAELQTYLRQITP) | – | – | – | – | – | 16
